The numbers were not newly measured in patent US20240166971A1, “CONTACT LENS TREATING SOLUTION” (Bausch + Lomb Ireland Limited, priority 2022, published 2024), which cites them from elsewhere.

This series deals with Gram-positive bacteria. The conditions noted are these: known property.

As for `CCCCC(CC)COCC(O)CO` (stereo not shown) [EHOPD, 3-[(2-ethylhexyl)oxy]-1,2-propanediol], the antimicrobial activity result is listed as “exhibit antimicrobial activity”.
